Results published in PMC7404261 (2020).

Columns and labels:
[1] = test system: ssDNA-G4-Fw (DNA, G4) CGGGAAAAGGCGCGCGGAAGGGGT; experiment: ThT fluorescence titration; details: Na+ (PBS), ThT 3 µM, ODN 0-6 µM, 491 nm, fitted to 1:1 model, unit not given
[2] = test system: RNA-G4 (RNA, G4) GGGAAAAGGCGCGCGGAAGGGG; experiment: ThT fluorescence titration; details: Na+ (PBS), ThT 3 µM, ODN 0-6 µM, 491 nm, fitted to 1:1 model, unit not given

Cc1ccc2c(c1)sc(-c1ccc(N(C)C)cc1)[n+]2C
association constant [1]: 2.72 × 10^6 | association constant [2]: 2.90 × 10^6
